According to patent US6380238B1, “Indoline derivatives as 5-HT2B and or 5-HTC receptor ligands” (Vernalis Research Limited, priority 1998, dated 2002):
Structures can show the parent of a compound that is named as a salt. Where two headings read alike, the source gives them in different places.

What was measured:
5-HT2A receptor = 5-HT2A receptor (Homo sapiens, UniProt P28223); test: Functional activity, FLIPR calcium assay in CHO cells expressing human 5-HT2A; assay type: cell-based; parameters: expressed in transfected cells; host or cells: CHO cells; settings: for Emax: CHO, read-out: h5-HT2A Relative Efficacy (%)
Description: (§1) The functional activity of compounds of formula (I) was assayed using a Fluorimetric Imaging Plate reader (FLIPR). CHO cells expressing the human 5-HT2C or human 5-HT2A receptors were counted and plated into standard 96 well microtitre plates on the day before testing to give a confluent monolayer. The cells were then dye loaded with the calcium sensitive dye, Fluo-3-AM. Unincorporated dye was removed using an automated cell washer to leave a total volume of 100 μL/well of assay buffer (Hanks balanced salt solution containing 20 mM Hepes and 2.5 mM probenecid). The drug (dissolved in 50 μL of the assay buffer) was added at a rate of 70 μL/sec to each well of the FLIPR 96 well plate during fluorescence measurements. The measurements were taken at 1 sec intervals and the maximum fluorescent signal was measured (approx 10-15 secs after drug addition) and compared with the response produced by 10 μM 5-HT (defined as 100%) to which it was expressed as a percentage response (relative efficacy). Dose response curves were constructed using Graphpad Prism (Graph Software Inc.).

5-HT2C receptor = molecular target: T1, 5-HT2C receptor (Homo sapiens, UniProt P28335); test: Functional activity, FLIPR calcium assay in CHO cells expressing human 5-HT2C; assay type: cell-based; parameters: expressed in transfected cells; host or cells: CHO cells; settings: for Emax: CHO, read-out: h5-HT2C Relative Efficacy (%)
T1 sequence (P28335 33-458): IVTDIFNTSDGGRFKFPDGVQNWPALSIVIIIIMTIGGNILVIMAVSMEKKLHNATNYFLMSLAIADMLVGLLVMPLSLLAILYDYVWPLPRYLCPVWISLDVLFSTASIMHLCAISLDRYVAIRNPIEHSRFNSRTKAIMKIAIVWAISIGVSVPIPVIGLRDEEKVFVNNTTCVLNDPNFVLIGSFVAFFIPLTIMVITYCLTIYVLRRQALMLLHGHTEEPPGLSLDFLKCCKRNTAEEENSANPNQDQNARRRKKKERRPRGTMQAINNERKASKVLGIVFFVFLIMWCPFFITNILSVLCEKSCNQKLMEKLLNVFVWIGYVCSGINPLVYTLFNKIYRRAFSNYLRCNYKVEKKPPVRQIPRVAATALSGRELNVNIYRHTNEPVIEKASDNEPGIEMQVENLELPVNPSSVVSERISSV
Description: as §1

[1] = FLIPR, CHO cells, Fluo-3-AM, read-out: h5-HT2C EC50

Chain of 5-HT2A receptor (P28223 whole entry): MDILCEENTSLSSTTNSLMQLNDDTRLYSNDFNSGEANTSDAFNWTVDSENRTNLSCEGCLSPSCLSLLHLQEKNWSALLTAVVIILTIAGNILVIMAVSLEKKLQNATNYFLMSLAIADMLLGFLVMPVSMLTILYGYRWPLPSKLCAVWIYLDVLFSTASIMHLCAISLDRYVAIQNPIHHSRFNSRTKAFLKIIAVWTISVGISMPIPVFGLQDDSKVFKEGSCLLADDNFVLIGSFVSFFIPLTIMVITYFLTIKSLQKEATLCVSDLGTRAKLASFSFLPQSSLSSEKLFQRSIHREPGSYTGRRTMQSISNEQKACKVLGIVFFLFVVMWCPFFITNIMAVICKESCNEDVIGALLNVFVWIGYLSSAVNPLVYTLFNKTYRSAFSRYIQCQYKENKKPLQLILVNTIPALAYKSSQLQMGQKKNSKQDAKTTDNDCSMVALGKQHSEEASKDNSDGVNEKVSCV

Row | SMILES | melting point | EC50 (5-HT2A receptor) [nM] | Emax (5-HT2A receptor) [%] | EC50 (5-HT2C receptor) [nM] | Emax (5-HT2C receptor) [%] | further results
1 | C[C@H](N)CN1CCc2ccc(-c3ccccc3)cc21.O=C(O)/C=C/C(=O)O | 153 to 154 °C |  |  |  |  | 
2 | CC(N)CN1CCc2ccc(OCc3ccccc3)cc21 (stereo not drawn) | 178 to 179 °C |  |  |  |  | 
3 | Cc1ccc2c(c1)N(CC(C)N)CC2 (stereo not drawn) (as salt: HCl) | 178 to 179 °C |  |  |  |  | 
4 | CC(N)CN1CCc2c(OCc3ccccc3)cccc21 (stereo not drawn) (as salt: HCl) | 188 to 190 °C |  |  |  |  | 
5 | C[C@@H](CN1CCc2ccc(Br)cc21)NCC1CC1 (as salt: HCl) | 155 to 156 °C |  |  |  |  | 
6 | CC(C)CN[C@@H](C)CN1CCc2ccc(Br)cc21 (as salt: HCl) | 151 to 153 °C |  |  |  |  | 
7 | CC(C)CCN[C@@H](C)CN1CCc2ccc(Br)cc21 (as salt: HCl) | 161 to 163 °C |  |  |  |  | 
8 | C[C@@H](CN1CCc2ccc(Br)cc21)NCC1CCCCC1 (as salt: HCl) | 208 to 210 °C |  |  |  |  | 
9 | C[C@@H](CN1CCc2ccc(Br)cc21)NCc1ccncc1 (as salt: HCl) | 202 to 204 °C |  |  |  |  | 
10 | CCC(N)CN1CCc2ccc(Cl)cc21 (stereo not drawn) (as salt: HCl) | 188 to 192 °C |  |  |  |  | 
11 | C[C@@H](N)CN1CCc2ccc(Cl)c(Cl)c21 (as salt: fumarate) | 213 to 214 °C |  |  |  |  | 
12 | COc1cccc2c1N(C[C@H](C)N)CC2 (as salt: fumarate) | 155 to 156 °C (dec.) |  |  |  |  | 
13 | CN(C)CCN1CCc2ccc(Cl)cc21 (as salt: fumarate) | 144 to 146 °C |  |  |  |  | 
14 | CC(N)CN1CCc2ccc(C(F)(F)F)cc21 (stereo not drawn) (as salt: fumarate) | 154 to 158 °C |  |  |  |  | 
15 | CC(N)CN1CCc2cc(OCc3ccccc3)ccc21 (stereo not drawn) (as salt: fumarate) (hydrate or solvate) | 143 to 144 °C |  |  |  |  | 
16 | C[C@H](N)CN1CCc2ccc(F)cc21 (as salt: fumarate) [Example 9] | 150 to 153 °C |  |  |  |  | 
17 | COc1ccc2c(c1)N(C[C@H](C)N)CC2 (as salt: fumarate) [Example 13] | 175 to 176 °C |  |  |  |  | 
18 | Cc1cc2c(cc1Cl)N(C[C@H](C)N)CC2 (as salt: fumarate) [Example 14] | 172 to 174 °C |  |  |  |  | 
19 | C[C@H](N)CN1CCc2cc(F)cc(Cl)c21 (as salt: fumarate) [Example 17] | 195 to 196 °C |  |  |  |  | 
20 | C[C@@H](N)CN1CCc2cccc(Br)c21 (as salt: fumarate) [Example 19] | 197 °C |  |  |  |  | 

Row | SMILES | melting point | EC50 (5-HT2A receptor) [nM] | Emax (5-HT2A receptor) [%] | EC50 (5-HT2C receptor) [nM] | Emax (5-HT2C receptor) [%] | further results
21 | C[C@H](N)CN1CCc2cccc(Br)c21 (as salt: fumarate) [Example 20] | 202 to 204 °C |  |  |  |  | 
22 | C[C@H](N)CN1CCc2cc(F)c(F)cc21 (as salt: fumarate) [Example 22] | 165 °C (dec.) |  |  |  |  | 
23 | C[C@H](N)CN1CCc2ccc(Cl)c(Cl)c21 (as salt: fumarate) [Example 23] | 176 to 178 °C |  |  |  |  | 
24 | C[C@H](N)CN1CCc2ccc(C(F)(F)F)cc21 (as salt: fumarate) [Example 24] | 197 to 199 °C |  |  |  |  | 
25 | C[C@H](N)CN1CCc2cc(F)c(Br)cc21 (as salt: fumarate) [Example 25] | 195 to 196 °C |  |  |  |  | 
26 | C[C@@H](N)CN1CCc2ccc(C(F)(F)F)cc21 (as salt: fumarate) [Example 26] | 196 to 197 °C |  |  |  |  | 
27 | C[C@H](N)CN1CCc2cc(Cl)ccc21 (as salt: fumarate) [Example 28] | 207 to 210 °C |  |  |  |  | 
28 | C[C@H](N)CN1CCc2cc(F)ccc21 (as salt: fumarate) [Example 29] | 175 to 176 °C |  |  |  |  | 
29 | CSc1cc2c(cc1F)CCN2CC(C)N (stereo not drawn) (as salt: fumarate) [Example 30] | 96 to 100 °C |  |  |  |  | 
30 | COc1ccc2c(c1)N(CC(C)N)CC2 (racemic) [Example 2, (RS)-1-(6-Methoxyindolin-1-yl)-2-propylamine Hydrochloride] |  | 1000 | 63 | 100 | 77 | 
31 | C[C@H](N)CN1CCc2ccc(F)cc21 [Example 9] |  | 5600 | 52 | 253 | 89 | 
32 | Cc1cc2c(cc1Cl)N(C[C@H](C)N)CC2 [Example 14] |  | 3700 | 55 | 2120 | 71 | 
33 | C[C@H](N)CN1CCc2cc(F)cc(Cl)c21 [Example 17] |  | 7500 | 40 | 616 | 76 | 
34 | C[C@@H](N)CN1CCc2ccc(Br)cc21 [Example 18] |  |  | 7 | 870 | 27 | 
35 | C[C@@H](N)CN1CCc2cccc(Br)c21 [Example 19] |  |  | 21 | 3800 | 34 | 
36 | C[C@H](N)CN1CCc2cccc(Br)c21 [Example 20] |  |  | 17 | 750 | 68 | 
37 | C[C@H](N)CN1CCc2ccc(Cl)c(Cl)c21 [Example 23] |  | 1350 | 34 | 354 | 76 | 
38 | C[C@H](N)CN1CCc2ccc(Cl)c(F)c21 [Example 27] |  | 1980 | 41 | 233 | 75 | 
39 | C[C@H](N)CN1CCc2cc(Cl)ccc21 [Example 28] |  | 1540 | 63 | 238 | 75 | 
40 | C[C@H](N)CN1CCc2cc(F)ccc21 [Example 29] |  | 3170 | 18 | 503 | 68 | 

Row | SMILES | melting point | EC50 (5-HT2A receptor) [nM] | Emax (5-HT2A receptor) [%] | EC50 (5-HT2C receptor) [nM] | Emax (5-HT2C receptor) [%] | further results
41 | CSc1cc2c(cc1F)CCN2CC(C)N (stereo not drawn) [Example 30] |  | 72 | 88 | 0.1 | 95 | 
42 | CCSc1cc2c(cc1F)CCN2C[C@H](C)N [Example 31] |  | 314 | 72 | 2 | 92 | 
43 | Cc1cccc2c1CCN2C[C@H](C)N [Example 32] |  | 1520 | 26 | 611 | 63 | 
44 | C[C@H](N)CN1CCc2cc(Br)ccc21 [Example 33] |  | 2930 | 51 | 257 | 75 | 
45 | C[C@H](N)CN1CCc2c(F)cccc21 [Example 35] |  |  | 30 | 727 | 51 | 
46 | CCc1cccc2c1N(C[C@H](C)N)CC2 [Example 37] |  | 2730 | 27 | 391 | 69 | 
47 | C[C@H](N)CN1CCc2c(Cl)cccc21 [Example 38] |  | 2560 | 26 | 320 | 63 | 
48 | CSc1ccc2c(c1)N(C[C@H](C)N)CC2 [Example 39] |  | 260 | 75 | 4 | 87 | 
49 | CCSc1ccc2c(c1)N(C[C@H](C)N)CC2 [Example 40] |  | 836 | 64 | 3 | 95 | 
50 | CCCSc1ccc2c(c1)N(C[C@H](C)N)CC2 [Example 41] |  |  |  | 67 | 83 | 
51 | CC(C)Sc1ccc2c(c1)N(C[C@H](C)N)CC2 [Example 42] |  | 4200 | 43 | 54 | 88 | 
52 | C[C@H](N)CN1CCc2ccc(-c3cccnc3)cc21 [Example 47] |  |  | 5 | 3540 | 33 | 
53 | C[C@H](N)CN1CCc2ccc(N3CCOCC3)cc21 [Example 49, (S)-1-[6-(4-Morpholinyl)indolin-1-yl]-2-propylamine Fumarate] |  |  | 5 |  | 69 | EC50 (5-HT2C receptor; [1]): 5480 nM
54 | NCCN1CCc2ccc([N+](=O)[O-])cc21 [Example 53, 2-(6-Nitroindolin-1-yl)-1-ethylamine Fumarate] |  |  | 20 |  | 86 | EC50 (5-HT2A receptor; FLIPR, CHO cells, Fluo-3-AM, read-out: h5-HT2A EC50): 2310 nM; EC50 (5-HT2C receptor; [1]): 266 nM
55 | C[C@H](N)CN1CCc2cc(F)c(C(F)(F)F)cc21 [Example 60, (S)-1-(5-Fluoro-6-trifluoromethylindolin-1-yl)-2-propylamine Fumarate] |  |  |  | 36 | 81 | 
56 | C[C@H](N)CN1CCc2cc(F)c(I)cc21 [Example 61, (S)-1-(5-Fluoro-6-iodoindolin-1-yl)-2-propylamine Fumarate] |  | 2180 | 49 | 26 | 68 | 
57 | Cc1cc2c(cc1F)CCN2C[C@H](C)N [Example 62, (S)-1-(5-Fluoro-6-methylindolin-1-yl)-2-propylamine Fumarate] |  |  |  | 329 | 54 | 
58 | Cc1ccc2c(c1)N(C[C@H](C)N)CC2 [Example 64, (S)-1-(6-Methylindolin-1-yl)-2-propylamine Fumarate] |  |  | 30 | 303 | 66 | 
